The values below come from ChEMBL document CHEMBL1201862, “PubChem BioAssay data set” (2004).

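These data come from cells grown in 96-well plates and exposed to compound for 48 hours at five concentrations. GI50 = concentration required for 50% inhibition of growth.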 Calls of active or inactive are those of the source. Cut-off read from the data, not from the text of the source: active = GI50 up to about 1.1 µM and inactive = higher. A value given as a limit tells only on which side of the number the result lay.

Assay in all cases: DTP human tumour cell line panel, 48 h
Assay [1] concerns RXF 393.
Assay [2] has as its system HOP-92.
Assay [3] deals with 786-0.
Assay [4] relates to IGROV-1.
For assay [5], the system named is MDA-N.
Assay [6] concerns Malme-3M.
Assay [7] deals with U-251.
Assay [8] concerns LOX IMVI.
The test system of assay [9] is NCI/ADR-RES.
Assay [10] deals with SNB-75.
Assay [11] deals with CAKI-1.
In assay [12] the test system is NCI-H226.
In assay [13] the test system is A549.
Assay [14] has as its system CCRF-CEM.
The subject of assay [15] is MDA-MB-435.
The subject of assay [16] is MOLT-4.
For assay [17], the system named is HCT-15.
In assay [18] the test system is SK-OV-3.
The test system of assay [19] is BT-549.
The subject of assay [20] is HCT-116.

In the case of `NC(CSC1(c2ccc(Cl)cc2)c2ccccc2-c2ccccc21)C(=O)O` (stereo not given), the GI50 (as a rule, the concentration that inhibits growth by half) in assay [1] is 31.6 µM (inactive); in assay [2], 20.7 µM (inactive); in assay [3], 20.8 µM (inactive); in assay [4], 13.5 µM (inactive); in [5] it was > 100 µM (inactive); in assay [6] it was 19.6 µM (inactive). In addition, the GI50 in [7] was 15.8 µM (inactive); in [8], 16.7 µM (inactive); in [9] it was 39.1 µM (inactive); in [10] it was 22.2 µM (inactive); in assay [11], 33.5 µM (inactive); in assay [12], 27.2 µM (inactive). Besides, the GI50 was 31.3 µM (inactive) in [13]; 29.1 µM (inactive) in assay [14]; 14.4 µM (inactive) in assay [15]; 20 µM (inactive) in assay [16]; 21.6 µM in assay [17]; 25.1 µM (inactive) in [18]. Besides, the figures for the GI50 in assay [19] and in assay [20] were 18.2 µM (inactive) and 16.6 µM (inactive), respectively.
Turning to `CCCC[C@H]1C(=O)O[C@H](C)[C@H](NC(=O)c2cccc(NC=O)c2OC)C(=O)O[C@@H](C)[C@@H]1OC(=O)C(C)CC.CCCC[C@H]1C(=O)O[C@H](C)[C@H](NC(=O)c2cccc(NC=O)c2OC)C(=O)O[C@@H](C)[C@@H]1OC(=O)CC(C)C` (stereo not given in full), the GI50 in [1] is 14.1 µM (inactive); in [2], 6.98 µM (inactive); in assay [3] it was 12.1 µM (inactive); in assay [4], 7.1 µM (inactive); in assay [5], 17.6 µM (inactive); in assay [6] it was 15.8 µM (inactive). The GI50 was 9.46 µM (inactive) in assay [7]; 10.3 µM (inactive) in [8]; 23 µM (inactive) in assay [9]; 8.02 µM (inactive) in [10]; 7.87 µM (inactive) in assay [11]; 12.2 µM (inactive) in assay [12]. Moreover, the GI50 was 10.3 µM (inactive) in [13]; 3.32 µM (inactive) in assay [14]; 10.3 µM (inactive) in assay [15]; 11.2 µM (inactive) in [16]; 12.8 µM in [17]; 12.5 µM (inactive) in assay [18]. Moreover, the figures for the GI50 in [19] and in assay [20] were 16.8 µM (inactive) and 12.1 µM (inactive), respectively.
Take `O=c1c2c3c(sc2nc2n1N=C(c1ccc(Cl)cc1)CS2)CCCC3`: the GI50 in assay [1], in assay [2], in assay [3], in assay [4], in assay [5] and in assay [6] was > 100 µM (inactive) each time. In addition, the GI50 in assay [7], in assay [8], in assay [9], in assay [10], in assay [11] and in assay [12] was > 100 µM (inactive) in each case. The GI50 is > 100 µM (inactive) in assay [13]; > 100 µM (inactive) in assay [14]; > 100 µM (inactive) in [15]; > 100 µM (inactive) in [16]; over 100 µM in assay [17]; > 100 µM (inactive) in [18]. Moreover, the GI50 in assay [19] and in assay [20] was > 100 µM (inactive) throughout.
Turning to `CC(C)(C)OC(=O)NC(Cc1c[nH]cn1)C(=O)N1CCCC1C(N)=O` (stereo not given), the GI50 in assay [1] was 2.17 µM (inactive); in assay [2], > 100 µM (inactive); in assay [3] it was > 100 µM (inactive); in assay [4], > 100 µM (inactive); in assay [5], > 100 µM (inactive); in assay [6], > 100 µM (inactive). Moreover, the GI50 in [7] was > 100 µM (inactive); in assay [8], > 100 µM (inactive); in assay [9], > 100 µM (inactive); in assay [10] it was > 100 µM (inactive); in [11], > 100 µM (inactive); in assay [12], 33.1 µM (inactive). Besides, the GI50 in assay [13] was > 100 µM (inactive); in assay [14] it was > 100 µM (inactive); in assay [15] it was > 100 µM (inactive); in assay [16], > 100 µM (inactive); in assay [17] it was over 100 µM; in assay [18] it was > 100 µM (inactive). For the same compound, the GI50 in [19] and in assay [20] was > 100 µM (inactive) each time.
`COc1cc(O)c2c(=O)c3c(C)cccc3n(C)c2c1`: the GI50 in assay [1], in [2], in assay [3], in [4], in [5] and in assay [6] was > 10 µM (inactive) each time. In addition, the GI50 in assay [7], in [8], in assay [9], in assay [10], in assay [11] and in [12] was > 10 µM (inactive) in each case. For the same compound, the GI50 was > 10 µM (inactive) in [13]; > 10 µM (inactive) in assay [14]; > 10 µM (inactive) in assay [15]; > 10 µM (inactive) in [16]; over 10 µM in assay [17]; > 10 µM (inactive) in assay [18]. Besides, the GI50 in [19] and in [20] was > 10 µM (inactive) each time.
Take `N/C(=N\c1ccc(Cl)cc1)NS(=O)(=O)c1cc(Cl)c(Oc2ccc([N+](=O)[O-])cc2Cl)c(Cl)c1`: the GI50 in [1] was 15.2 µM (inactive); in assay [2], 17.2 µM (inactive); in assay [3], 18.9 µM (inactive); in assay [4] it was 15.8 µM (inactive); in assay [5], 18.2 µM (inactive); in assay [6] it was > 100 µM (inactive). Moreover, the GI50 in assay [7] is 14.8 µM (inactive); in assay [8], 16.1 µM (inactive); in assay [9], 17.2 µM (inactive); in [10] it was 17.1 µM (inactive); in assay [11], 17.2 µM (inactive); in assay [12], 17.1 µM (inactive). The GI50 in assay [13] was 17.2 µM (inactive); in assay [14] it was 19.7 µM (inactive); in assay [15] it was 18.4 µM (inactive); in assay [16], 14.8 µM (inactive); in assay [17] it was 16.9 µM; in assay [18], 17.4 µM (inactive). Moreover, the GI50 in [19] is 17.4 µM (inactive); in [20], 16.7 µM (inactive).
Take `CC(=O)NC1C(O)C(O)C(CO)OC1n1nc(SCc2ccccc2)c(=O)[nH]c1=O` (stereo not given): the GI50 in [1], in assay [2], in [3], in [4], in [5] and in assay [6] was > 100 µM (inactive) throughout. Also, the GI50 in assay [7] is > 100 µM (inactive); in assay [8], > 100 µM (inactive); in [9], > 100 µM (inactive); in [10] it was > 65 µM (inactive); in assay [11], > 100 µM (inactive); in assay [12], > 100 µM (inactive). Further, the GI50 in [13] was > 100 µM (inactive); in assay [14], > 100 µM (inactive); in [15], > 100 µM (inactive); in assay [16], > 100 µM (inactive); in assay [17], over 100 µM; in assay [18], > 100 µM (inactive). Further, the GI50 in assay [19] and in assay [20] was > 100 µM (inactive) in each case.
